Data set [1] can be described thus: ABTS free radical scavenging assay. The note with it: vitamin C 10 μg/ml, normal temperature. As to the method: Antioxidant capacity of a sample to be tested was evaluate by ABTS (English full name: 2,2′-azinobis-3-ethyl benzothiazoline-6-sulphonic acid) free radical scavenging test. Since ABTS and potassium persulphate (K2S2O8) will produce an oxidation reaction and form a stable blue-green water-soluble ABTS⋅^+ radical ion with a maximum absorption peak at 734 nm, ABTS⋅^+ free radical concentration can be detected through A734 nm. When the ABTS⋅^+ radical solution is added with an antioxidant (radical scavenger), the original single radicals are paired, causing the ABTS⋅^+ radical solution to fade and the A734 nm absorption value to decrease, thereby evaluating Free radical scavenging ability of the antioxidant can be evaluated.
The mixed solution was placed in a dark room at room temperature for 16 hours of reaction to form stable ABTS⋅^+ radical ions (blue-green), and then the mixed solution was diluted with deionized water to form a ABTS⋅^+ radical ion working solution with absorbance of 0.75±0.05 at 734 nm by a spectrophotometer.
Next, a sample to be tested and standards (Trolox) with different concentrations were added to the ABTS⋅^+ radical ion working solution, respectively, and a group in which only deionized water was added was used as a control group. Absorbance at 734 nm was detected by a spectrophotometer after 20 minutes of reaction. Abilities to scavenge ABTS⋅+ radicals of the standards (Trolox) with different concentrations were plotted as a scavenging standard curve. The measured absorbance of the sample to be tested and the control group are converted according to the standard curve to know the free radical scavenging ability of the sample to be tested. The formula for calculating the scavenging ability is: (1-ABSsample/ABScontrol)×100.

Data set [2] in a line: DPPH free radical scavenging assay. As to conditions: normal temperature; for DPPH free radical capture rate: vitamin C 10 μg/ml. The protocol: DPPH is a stable free radical. When it is dissolved in methanol or ethanol, it will appear purple and has a strong absorbance at 515 nm. When the sample to be tested can directly react with DPPH radicals, it will block the […] reaction of DPPH free radicals. At this time, the DPPH solution which originally appeared blue-violet will turn into clear yellow, and the absorbance at 515 nm will decrease, and that means that the sample to be tested has an antioxidant component that captures DPPH free radicals. The lighter the color become, the stronger ability to capture DPPH free radicals the antioxidant component has, which means the better the antioxidant capacity of the sample to be tested has. This assay was performed according to a method modified from the method shown by Parejo et al (2003). Aqueous solution of the sample to be tested and standards (Glutathione) with different concentrations each 30 μl were added to the 96-well plate, respectively, and water was used as a blank control. Thereafter, 120 μl of 100 mM Tris-HCl buffer (pH 7.4) was added to the plate and then 150 μl of 500 μM DPPH (Sigma Sigma) ethanol solution was immediately added and uniformly mixed at room temperature and allowed to stand in the dark for 20 minutes. After that, absorbance at 515 nm was detected by a spectrophotometer. The more DPPH free radicals were scavenged, the more the absorbance value decreased. Ability of each sample to be tested to scavenge DPPH free radicals (also means the strength of the hydrogen supply capacity of the sample to be tested) can be determined by percentage of decrease in absorbance relative to the blank control group.

Data set [3] is described as follows: Antioxidant degradation evaluation assay (iodometric titration of vitamin C). Format: physicochemical. As to conditions: vitamin C 10 μg/ml. The protocol: This assay was performed according to a method modified from the method shown by Roberts et al. (1997). First, a liquid sample containing a specific antioxidant at a concentration to be tested was prepared, and the liquid sample containing the specific antioxidant was added into a 250 mL Erlenmeyer flask by a pipette and deionized water was added the to the Erlenmeyer flask to reach the 100 mL scale mark. At the same time, 1 mL of 0.1 M sodium iodide (NaI) and 1 mL of 0.1 M hydrochloric acid (hydrogen chloride, HCl) and 1 mL of 2% starch aqueous solution (indicator) were added to the Erlenmeyer flask. Next, a burette was rinsed the with 0.025 M potassium iodate (KIO3) at least twice, first, and then filled with 0.025 M potassium iodate in a technique of avoiding bubble formation during the filling, and the initial volume of the solution (Vi) in the burette was record after the filling. Thereafter, the liquid sample containing the specific antioxidant mentioned above was titrated with 0.025 M potassium iodate. […] Depending on the condition, the titration operation mentioned above could be repeated two or three times, as appropriate. Finally, the specific antioxidant content could be calculated from the titration volume of potassium iodate.

[4] abbreviates: room temperature (about 26° C.), 24 hours.

The results in this text go back to US11246822B2, “Biomedical composition for skin care and/or maintenance and delaying and/or inhibiting skin aging and the use thereof” (INDUSTRIAL TECHNOLOGY RESEARCH INSTITUTE, priority 2019, dated 2022).

In the case of `O=C1O[C@H]([C@@H](O)CO)C(O)=C1O` [vitamin C, ascorbic acid], the entries for the “ABTS radical ion scavenging rate” value in data set [1] (0 hours), in data set [1] (72 hours) and in data set [1] (after 24 hours) were 57.08%, 2.49% and 22.45%, respectively. In addition, the “decrease of antioxidant capacity (DPPH)” value in data set [2] (after 24 hours) is on record as “about 60%”. The “DPPH free radical capture rate” value is 86.77% in data set [2] (0 hour), 2.99% in data set [2] (72 hours) and 34.67% in data set [2] (after 24 hours). The “vitamin C concentration decreased” value in data set [3] (40° C., 4 hours) was 20.4%. In addition, the “vitamin C concentration, % of the initial concentration” value in data set [3] (40° C., 24 hours) is “about 24.3%”; in data set [3] (40° C., 72 hours), 3.3%; in data set [3] (setting [4]), “about 40%”; in data set [3] (room temperature (about 26° C.), 72 hours), “about 0.9%”. Besides, the “vitamin C concentration reduced / degraded” value in data set [3] (setting [4]) is listed as 62.6%.
